Experimental findings from ChEMBL document CHEMBL1153403, “Design, synthesis, and evaluation of novel fluoroquinolone-aminoglycoside hybrid antibiotics” (J Med Chem, 2009) are described below.

Type in all cases: functional
In assay [1] the test system is Escherichia coli. The assay is described as follows: Antibacterial activity against kanamycin-resistant Escherichia coli AG100A expressing aminoglycosides resistant APH(3')-1 enzyme by double-microdilution method. Background: Dilution methods test growth across graded concentrations, often in twofold steps.
For assay [2], the system named is Escherichia coli. The assay is described as follows: Antibacterial activity against kanamycin-resistant Escherichia coli AG100B expressing aminoglycosides resistant APH(3')-1 enzyme by double-microdilution method.
In another assay the test system is Staphylococcus aureus. The assay is described as follows: Antibacterial activity against methicillin-resistant Staphylococcus aureus ATCC 43300 by double-microdilution method.
Another assay relates to Bacillus subtilis. The assay is described as follows: Antibacterial activity against aminoglycosides-susceptible Bacillus subtilis ATCC 6633 by double-microdilution method.
Assay [3] concerns Escherichia coli. The assay is described as follows: Antibacterial activity against Escherichia coli ATCC 25922 by double-microdilution method.
Assay [4] has as its system Escherichia coli. The assay is described as follows: Antibacterial activity against Escherichia coli R477-100 by double-microdilution method.

Converted amounts (≈) assume the structure as drawn.

One may read the MIC as the least concentration at which growth counts as inhibited. A high value points to a less susceptible organism. Regarding `NC[C@@H]1O[C@H](O[C@H]2[C@@H](O)[C@H](O[C@@H]3[C@@H](O)[C@H](N)C[C@H](N)[C@H]3O[C@H]3O[C@H](CN)[C@@H](O)[C@H](O)[C@H]3N)O[C@@H]2C(=O)NCc2cn(CCCN3CCN(c4cc5c(cc4F)c(=O)c(C(=O)O)cn5C4CC4)CC3)nn2)[C@H](N)[C@@H](O)[C@@H]1O`, the MIC in the assay with Escherichia coli [1] was found to be 1.5 µg/mL (≈ 1.39 µM); in the assay with Escherichia coli [2], 12 µg/mL (≈ 11.1 µM); against Staphylococcus aureus, 48 µg/mL (≈ 44.4 µM); in the assay with Bacillus subtilis, 6 µg/mL (≈ 5.55 µM); with Escherichia coli [3] it was 6 µg/mL (≈ 5.55 µM); in the assay on Escherichia coli [4], 12 µg/mL (≈ 11.1 µM).

On to `NC[C@@H]1O[C@H](O[C@H]2[C@@H](O)[C@H](O[C@@H]3[C@@H](O)[C@H](N)C[C@H](N)[C@H]3O[C@H]3O[C@H](CN)[C@@H](O)[C@H](O)[C@H]3N)O[C@@H]2C(=O)NCc2cn(CCOCCN3CCN(c4cc5c(cc4F)c(=O)c(C(=O)O)cn5C4CC4)CC3)nn2)[C@H](N)[C@@H](O)[C@@H]1O`, for which the minimum inhibitory concentration (MIC) in the assay with Escherichia coli [1] was found to be 1.5 µg/mL (≈ 1.35 µM); with Escherichia coli [2], 12 µg/mL (≈ 10.8 µM); with Staphylococcus aureus, 24 µg/mL (≈ 21.6 µM); against Bacillus subtilis, 12 µg/mL (≈ 10.8 µM); against Escherichia coli [3] it was 6 µg/mL (≈ 5.4 µM); in the assay with Escherichia coli [4], 12 µg/mL (≈ 10.8 µM).

In the case of `NC[C@@H]1O[C@H](O[C@H]2[C@@H](O)[C@H](O[C@@H]3[C@@H](O)[C@H](N)C[C@H](N)[C@H]3O[C@H]3O[C@H](CN)[C@@H](O)[C@H](O)[C@H]3N)O[C@@H]2C(=O)NCc2cn(CCN3CCN(c4cc5c(cc4F)c(=O)c(C(=O)O)cn5C4CC4)CC3)nn2)[C@H](N)[C@@H](O)[C@@H]1O`, the MIC in the assay on Escherichia coli [1] amounted to 1.5 µg/mL (≈ 1.41 µM); against Escherichia coli [2] it was 12 µg/mL (≈ 11.3 µM); against Staphylococcus aureus it was 24 µg/mL (≈ 22.5 µM); against Bacillus subtilis, 3 µg/mL (≈ 2.81 µM); against Escherichia coli [3], 6 µg/mL (≈ 5.63 µM); against Escherichia coli [4], 12 µg/mL (≈ 11.3 µM).

Regarding `NC[C@@H]1O[C@H](O[C@H]2[C@@H](O)[C@H](O[C@@H]3[C@@H](O)[C@H](N)C[C@H](N)[C@H]3O[C@H]3O[C@H](CN)[C@@H](O)[C@H](O)[C@H]3N)O[C@@H]2C(=O)Nc2ccc(-c3cn(Cc4cccc(CN5CCN(c6cc7c(cc6F)c(=O)c(C(=O)O)cn7C6CC6)CC5)c4)nn3)cc2)[C@H](N)[C@@H](O)[C@@H]1O`, the MIC against Escherichia coli [1] turned out to be 1.5 µg/mL (≈ 1.25 µM); with Escherichia coli [2], 12 µg/mL (≈ 9.96 µM); with Staphylococcus aureus, 12 µg/mL (≈ 9.96 µM); against Bacillus subtilis, 6 µg/mL (≈ 4.98 µM); against Escherichia coli [3] it was 12 µg/mL (≈ 9.96 µM); with Escherichia coli [4] it was 6 µg/mL (≈ 4.98 µM).

On to `NC[C@@H]1O[C@H](O[C@H]2[C@@H](O)[C@H](O[C@@H]3[C@@H](O)[C@H](N)C[C@H](N)[C@H]3O[C@H]3O[C@H](CN)[C@@H](O)[C@H](O)[C@H]3N)O[C@@H]2C(=O)NCc2cn(CCCCCN3CCN(c4cc5c(cc4F)c(=O)c(C(=O)O)cn5C4CC4)CC3)nn2)[C@H](N)[C@@H](O)[C@@H]1O`, for which the minimum inhibitory concentration (MIC) amounted to 1.5 µg/mL (≈ 1.35 µM) with Escherichia coli [1]; 24 µg/mL (≈ 21.7 µM) with Escherichia coli [2]; 48 µg/mL (≈ 43.3 µM) in the assay with Staphylococcus aureus; 12 µg/mL (≈ 10.8 µM) in the assay on Bacillus subtilis; 6 µg/mL (≈ 5.41 µM) against Escherichia coli [3]; 24 µg/mL (≈ 21.7 µM) against Escherichia coli [4].

`NC[C@@H]1O[C@H](O[C@H]2[C@@H](O)[C@H](O[C@@H]3[C@@H](O)[C@H](N)C[C@H](N)[C@H]3O[C@H]3O[C@H](CN)[C@@H](O)[C@H](O)[C@H]3N)O[C@@H]2C(=O)Nc2ccc(-c3cn(CCCCN4CCN(c5cc6c(cc5F)c(=O)c(C(=O)O)cn6C5CC5)CC4)nn3)cc2)[C@H](N)[C@@H](O)[C@@H]1O`: the MIC is 1.5 µg/mL (≈ 1.3 µM) with Escherichia coli [1]; 24 µg/mL (≈ 20.8 µM) against Escherichia coli [2]; 24 µg/mL (≈ 20.8 µM) against Staphylococcus aureus; 6 µg/mL (≈ 5.19 µM) in the assay on Bacillus subtilis; 6 µg/mL (≈ 5.19 µM) with Escherichia coli [3]; 12 µg/mL (≈ 10.4 µM) against Escherichia coli [4].
